Test results from EP4722207A1, “OXOISOINDOLINYL-SUBSTITUTED TETRAHYDROPYRIMIDINEDIONE DERIVATIVE AND USE THEREOF” (Gluetacs Therapeutics (Shanghai) Co., Ltd., priority 2023, dated 2024).

Columns and labels:
CK1α = molecular target: T1, CK1α (Homo sapiens, UniProt P48729+Q96SW2); test: Western-blot assay, substrate protein degradation in hPBMCs: CK1α; format: cell-based; conditions: 24 hours of compound treatment, 50 nM and 500 nM
T1 construct: effects of the compounds of the present disclosure on the expression of target proteins in cells; endogenous in cells; host or cells: human PBMCs (hPBMCs)

MDA-MB-231 = test: Cell viability assay (CellTiter-Meiluncell Luminescent), tumor cell proliferation, MDA-MB-231; conditions: Homo sapiens, MDA-MB-231, 96 h; for inhibition at 0.01 µM: read-out: Inhibition Rate at 10 nM (%); for inhibition at 0.5 µM: read-out: Inhibition Rate at 500 nM (%)
IKZF3 = molecular target: T2, IKZF3 (Homo sapiens, UniProt Q96SW2+Q9UKT9); test: Western-blot assay, substrate protein degradation in hPBMCs: IKZF3; format: cell-based; conditions: 24 hours of compound treatment, 50 nM and 500 nM
T2 construct: effects of the compounds of the present disclosure on the expression of target proteins in cells; endogenous in cells; host or cells: human PBMCs (hPBMCs)

WEE1 = molecular target: T3, WEE1 (Homo sapiens, UniProt P30291+Q96SW2); test: Western-blot assay, substrate protein degradation in hPBMCs: WEE1; format: cell-based; conditions: 24 hours of compound treatment, 50 nM and 500 nM
T3 construct: effects of the compounds of the present disclosure on the expression of target proteins in cells; endogenous in cells; host or cells: human PBMCs (hPBMCs)

H2228 = test: Cell viability assay (CellTiter-Meiluncell Luminescent), tumor cell proliferation, H2228; conditions: Homo sapiens, NCI-H2228, 96 h; for inhibition at 0.01 µM: read-out: Inhibition Rate at 10 nM (%); for inhibition at 0.5 µM: read-out: Inhibition Rate at 500 nM (%)
IKZF1 = molecular target: T4, IKZF1 (Homo sapiens, UniProt Q13422+Q96SW2); test: Western-blot assay, substrate protein degradation in hPBMCs: IKZF1; format: cell-based; conditions: 24 hours of compound treatment, 50 nM and 500 nM
T4 construct: effects of the compounds of the present disclosure on the expression of target proteins in cells; endogenous in cells; host or cells: human PBMCs (hPBMCs)

IKZF2 = molecular target: T5, IKZF2 (Homo sapiens, UniProt Q96SW2+Q9UKS7); test: Western-blot assay, substrate protein degradation in hPBMCs: IKZF2; format: cell-based; conditions: 24 hours of compound treatment, 50 nM and 500 nM
T5 construct: effects of the compounds of the present disclosure on the expression of target proteins in cells; endogenous in cells; host or cells: human PBMCs (hPBMCs)

GSPT1 = molecular target: T6, GSPT1 (Homo sapiens, UniProt P15170+Q96SW2); test: Western-blot assay, substrate protein degradation in hPBMCs: GSPT1; format: cell-based; conditions: 24 hours of compound treatment, 50 nM and 500 nM
T6 construct: effects of the compounds of the present disclosure on the expression of target proteins in cells; endogenous in cells; host or cells: human PBMCs (hPBMCs)

H292 = test: Cell viability assay (CellTiter-Meiluncell Luminescent), tumor cell proliferation, H292; conditions: Homo sapiens, NCI-H292, 96 h; for inhibition at 0.01 µM: read-out: Inhibition Rate at 10 nM (%); for inhibition at 0.5 µM: read-out: Inhibition Rate at 500 nM (%)

T4 sequence (Q13422 whole entry): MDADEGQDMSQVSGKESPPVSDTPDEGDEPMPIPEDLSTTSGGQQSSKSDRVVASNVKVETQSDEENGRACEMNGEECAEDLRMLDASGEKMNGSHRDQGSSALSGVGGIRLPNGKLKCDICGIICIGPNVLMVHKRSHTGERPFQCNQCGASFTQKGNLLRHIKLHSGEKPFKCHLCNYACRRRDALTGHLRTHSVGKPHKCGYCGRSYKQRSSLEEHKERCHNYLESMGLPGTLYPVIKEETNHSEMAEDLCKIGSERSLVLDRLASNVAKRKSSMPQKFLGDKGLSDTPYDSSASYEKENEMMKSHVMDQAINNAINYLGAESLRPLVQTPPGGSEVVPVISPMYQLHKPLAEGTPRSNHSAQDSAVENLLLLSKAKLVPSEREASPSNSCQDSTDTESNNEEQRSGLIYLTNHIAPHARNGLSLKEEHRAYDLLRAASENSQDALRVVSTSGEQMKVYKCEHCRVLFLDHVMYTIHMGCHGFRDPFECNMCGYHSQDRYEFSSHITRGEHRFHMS
T4 sequence (Q96SW2 whole entry): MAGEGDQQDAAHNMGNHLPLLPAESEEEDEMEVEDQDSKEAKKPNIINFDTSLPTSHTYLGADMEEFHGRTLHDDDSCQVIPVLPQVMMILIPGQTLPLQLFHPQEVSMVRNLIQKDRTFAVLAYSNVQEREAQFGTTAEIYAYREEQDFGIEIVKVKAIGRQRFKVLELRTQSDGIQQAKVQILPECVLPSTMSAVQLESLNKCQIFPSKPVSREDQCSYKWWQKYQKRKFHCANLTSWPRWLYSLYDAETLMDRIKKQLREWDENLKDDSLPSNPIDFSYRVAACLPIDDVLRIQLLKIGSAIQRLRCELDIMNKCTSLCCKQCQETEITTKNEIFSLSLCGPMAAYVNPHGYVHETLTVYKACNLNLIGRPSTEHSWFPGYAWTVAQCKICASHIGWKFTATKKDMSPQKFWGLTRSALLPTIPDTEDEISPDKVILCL
T4 sequence (Q16531 whole entry partner): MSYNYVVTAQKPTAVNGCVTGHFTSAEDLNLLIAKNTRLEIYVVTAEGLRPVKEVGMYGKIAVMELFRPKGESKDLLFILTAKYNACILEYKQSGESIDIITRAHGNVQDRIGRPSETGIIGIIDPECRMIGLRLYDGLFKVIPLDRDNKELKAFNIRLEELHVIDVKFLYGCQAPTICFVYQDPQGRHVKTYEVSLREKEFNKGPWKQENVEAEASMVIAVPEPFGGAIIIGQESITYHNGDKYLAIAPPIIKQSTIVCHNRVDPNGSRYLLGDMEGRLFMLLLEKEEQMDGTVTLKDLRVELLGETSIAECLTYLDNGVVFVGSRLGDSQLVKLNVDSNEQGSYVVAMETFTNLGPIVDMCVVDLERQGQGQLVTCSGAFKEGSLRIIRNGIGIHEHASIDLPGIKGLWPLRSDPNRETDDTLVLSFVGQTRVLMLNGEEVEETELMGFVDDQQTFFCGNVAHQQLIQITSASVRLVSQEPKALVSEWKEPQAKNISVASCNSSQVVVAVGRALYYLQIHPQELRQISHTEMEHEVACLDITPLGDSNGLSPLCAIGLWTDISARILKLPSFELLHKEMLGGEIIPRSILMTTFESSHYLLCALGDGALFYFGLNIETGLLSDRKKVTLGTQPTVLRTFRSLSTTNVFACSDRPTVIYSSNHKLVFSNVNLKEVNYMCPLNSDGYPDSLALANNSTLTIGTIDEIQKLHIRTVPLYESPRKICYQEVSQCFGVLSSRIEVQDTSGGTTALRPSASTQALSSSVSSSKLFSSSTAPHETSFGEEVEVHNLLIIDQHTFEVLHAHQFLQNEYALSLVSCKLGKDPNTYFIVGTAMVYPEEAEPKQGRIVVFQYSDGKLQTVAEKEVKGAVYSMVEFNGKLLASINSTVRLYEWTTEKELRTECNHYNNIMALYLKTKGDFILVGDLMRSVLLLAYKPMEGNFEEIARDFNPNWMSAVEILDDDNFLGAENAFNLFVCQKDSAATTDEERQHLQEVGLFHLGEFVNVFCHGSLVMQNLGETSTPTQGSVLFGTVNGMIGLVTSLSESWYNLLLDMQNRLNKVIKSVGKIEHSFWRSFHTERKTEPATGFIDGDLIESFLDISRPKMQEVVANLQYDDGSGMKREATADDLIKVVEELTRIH
T2 sequence (Q9UKT9 whole entry): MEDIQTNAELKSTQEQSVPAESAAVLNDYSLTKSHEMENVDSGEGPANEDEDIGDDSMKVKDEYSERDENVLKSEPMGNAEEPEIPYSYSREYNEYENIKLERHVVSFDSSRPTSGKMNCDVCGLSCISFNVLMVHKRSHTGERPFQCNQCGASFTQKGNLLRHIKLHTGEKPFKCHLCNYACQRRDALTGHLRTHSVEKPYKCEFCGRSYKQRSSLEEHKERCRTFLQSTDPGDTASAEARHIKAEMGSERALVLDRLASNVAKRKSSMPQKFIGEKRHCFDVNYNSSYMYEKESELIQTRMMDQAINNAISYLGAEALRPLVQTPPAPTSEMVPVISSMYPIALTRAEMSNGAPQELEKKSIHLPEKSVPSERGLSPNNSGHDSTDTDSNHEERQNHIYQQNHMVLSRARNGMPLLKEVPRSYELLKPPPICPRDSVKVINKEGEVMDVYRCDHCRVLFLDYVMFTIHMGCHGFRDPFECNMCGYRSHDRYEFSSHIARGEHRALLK
T2 sequence (Q96SW2 whole entry): as the sequence (Q96SW2 whole entry) above
T2 sequence (Q16531 whole entry partner): as the sequence (Q16531 whole entry partner) above
T5 sequence (Q9UKS7 whole entry): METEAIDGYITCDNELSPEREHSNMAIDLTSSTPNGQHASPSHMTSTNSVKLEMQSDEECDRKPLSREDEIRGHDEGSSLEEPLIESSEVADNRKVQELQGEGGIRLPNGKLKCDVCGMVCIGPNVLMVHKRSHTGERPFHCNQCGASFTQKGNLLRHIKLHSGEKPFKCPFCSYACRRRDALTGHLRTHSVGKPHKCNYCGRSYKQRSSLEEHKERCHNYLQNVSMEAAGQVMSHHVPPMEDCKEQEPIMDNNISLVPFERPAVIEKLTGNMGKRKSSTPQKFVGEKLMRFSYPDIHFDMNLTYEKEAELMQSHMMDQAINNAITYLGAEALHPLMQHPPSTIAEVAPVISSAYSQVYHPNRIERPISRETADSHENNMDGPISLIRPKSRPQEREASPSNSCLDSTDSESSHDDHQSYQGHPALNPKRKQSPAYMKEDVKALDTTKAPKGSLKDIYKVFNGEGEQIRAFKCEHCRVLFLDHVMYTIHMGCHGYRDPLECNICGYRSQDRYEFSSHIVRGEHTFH
T5 sequence (Q96SW2 whole entry): as the sequence (Q96SW2 whole entry) above
T5 sequence (Q16531 whole entry partner): as the sequence (Q16531 whole entry partner) above
T3 sequence (P30291 whole entry): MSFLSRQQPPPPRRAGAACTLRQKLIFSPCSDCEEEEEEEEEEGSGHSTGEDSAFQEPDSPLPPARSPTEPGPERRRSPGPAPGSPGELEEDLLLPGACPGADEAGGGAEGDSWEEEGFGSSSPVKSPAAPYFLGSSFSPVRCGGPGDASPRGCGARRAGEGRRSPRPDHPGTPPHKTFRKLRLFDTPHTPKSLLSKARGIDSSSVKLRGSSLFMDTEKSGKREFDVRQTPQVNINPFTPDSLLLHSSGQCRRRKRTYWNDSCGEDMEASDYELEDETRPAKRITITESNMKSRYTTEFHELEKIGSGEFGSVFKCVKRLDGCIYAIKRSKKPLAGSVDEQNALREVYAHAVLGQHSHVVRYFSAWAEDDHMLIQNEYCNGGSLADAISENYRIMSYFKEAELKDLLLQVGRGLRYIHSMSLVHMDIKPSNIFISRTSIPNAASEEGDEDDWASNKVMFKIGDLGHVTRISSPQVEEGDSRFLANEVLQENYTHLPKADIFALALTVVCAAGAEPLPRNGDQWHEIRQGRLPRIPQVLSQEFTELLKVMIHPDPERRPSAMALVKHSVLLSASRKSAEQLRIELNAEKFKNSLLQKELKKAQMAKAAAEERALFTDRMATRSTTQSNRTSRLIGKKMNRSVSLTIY
T3 sequence (Q96SW2 whole entry): as the sequence (Q96SW2 whole entry) above
T3 sequence (Q16531 whole entry partner): as the sequence (Q16531 whole entry partner) above
T6 sequence (P15170 whole entry): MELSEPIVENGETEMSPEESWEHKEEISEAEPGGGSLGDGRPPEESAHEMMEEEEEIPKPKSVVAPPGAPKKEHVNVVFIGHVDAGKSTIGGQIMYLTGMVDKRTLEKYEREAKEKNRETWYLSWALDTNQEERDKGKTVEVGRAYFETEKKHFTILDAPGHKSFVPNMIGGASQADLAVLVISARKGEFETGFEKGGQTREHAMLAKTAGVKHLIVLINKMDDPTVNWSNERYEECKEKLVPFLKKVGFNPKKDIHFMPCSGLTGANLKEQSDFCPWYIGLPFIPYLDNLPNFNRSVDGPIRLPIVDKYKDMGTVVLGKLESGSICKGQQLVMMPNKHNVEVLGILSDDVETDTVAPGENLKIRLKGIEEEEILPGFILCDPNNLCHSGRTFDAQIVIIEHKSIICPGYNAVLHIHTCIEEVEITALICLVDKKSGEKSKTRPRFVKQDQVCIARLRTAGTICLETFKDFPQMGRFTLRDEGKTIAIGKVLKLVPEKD
T6 sequence (Q96SW2 whole entry): as the sequence (Q96SW2 whole entry) above
T6 sequence (Q16531 whole entry partner): as the sequence (Q16531 whole entry partner) above

Row | SMILES | substrate protein remaining % CK1α (CK1α) | inhibition at 0.01 µM (MDA-MB-231) | inhibition at 0.5 µM (MDA-MB-231) | substrate protein remaining % IKZF3 (IKZF3) | substrate protein remaining % WEE1 (WEE1) | inhibition at 0.01 µM (H2228) | inhibition at 0.5 µM (H2228) | substrate protein remaining % IKZF1 (IKZF1) | substrate protein remaining % IKZF2 (IKZF2) | substrate protein remaining % GSPT1 (GSPT1) | inhibition at 0.01 µM (H292) | inhibition at 0.5 µM (H292)
1 | O=C1CCN(N2Cc3cc(CNC45CC6CC(CC(O)(C6)C4)C5)ccc3C2=O)C(=O)N1 [GT-07784, 1-(5-((((1r,3s,5R,7S)-3-hydroxyadamantan-1-yl)amino)methyl)-1-oxoisoindolin-2-yl)dihydropyrimidine-2,4(1H,3H)-dione] | B (80%< substrate protein remaining %≤ 100%) | 18 to 25% | 25 to 40% | B (80%< substrate protein remaining %≤ 100%) | B (80%< substrate protein remaining %≤ 100%) | 25 to 30% | 30 to 40% | B (80%< substrate protein remaining %≤ 100%) | A (0% ≤ substrate protein remaining % ≤ 80%) | B (80%< substrate protein remaining %≤ 100%) | 20 to 40% | 20 to 40%
2 | O=C1CCN(N2C(=O)c3ccc(CNC45CC6CC(CC(O)(C6)C4)C5)cc3C2=O)C(=O)N1 [GT-07786, 2-(2,4-dioxotetrahydropyrimidin-1(2H)-yl)-5-((((1r,3s,5R,7S)-3-hydroxyadamantan-1-yl)amino)methyl)isoindoline-1,3-dione] | B (80%< substrate protein remaining %≤ 100%) | 15 to 18% | 25 to 40% | B (80%< substrate protein remaining %≤ 100%) | B (80%< substrate protein remaining %≤ 100%) | 10 to 15% | 25 to 30% | B (80%< substrate protein remaining %≤ 100%) | B (80%< substrate protein remaining %≤ 100%) | A (0% ≤ substrate protein remaining % ≤ 80%) | 10 to 15% | 20 to 40%
3 | O=C1CCN(N2Cc3cc(CN4CCN(c5ncnc6sccc56)CC4)ccc3C2=O)C(=O)N1 [GT-08057, 1-(1-oxo-5-((4-(thieno[2,3-d]pyrimidin-4-yl)piperazin-1-yl)methyl)isoindolin-2-yl)dihydropyrimidine-2,4(1H,3H)-dione] | B (80%< substrate protein remaining %≤ 100%) | 25 to 40% | 25 to 40% | B (80%< substrate protein remaining %≤ 100%) | B (80%< substrate protein remaining %≤ 100%) | 30 to 40% | 20 to 25% | A (0% ≤ substrate protein remaining % ≤ 80%) | B (80%< substrate protein remaining %≤ 100%) | A (0% ≤ substrate protein remaining % ≤ 80%) | 15 to 20% | 15 to 20%
4 | Cc1cc2c(N3CCN(Cc4ccc5c(c4)CN(N4CCC(=O)NC4=O)C5=O)CC3)ncnc2s1 [GT-08059, 1-(5-((4-(6-methylthieno[2,3-d]pyrimidin-4-yl)piperazin-1-yl)methyl)-1-oxoisoindolin-2-yl)dihydropyrimidine-2,4(1H,3H)-dione] | B (80%< substrate protein remaining %≤ 100%) | 25 to 40% | 25 to 40% | A (0% ≤ substrate protein remaining % ≤ 80%) | B (80%< substrate protein remaining %≤ 100%) | 30 to 40% | 15 to 20% | B (80%< substrate protein remaining %≤ 100%) | B (80%< substrate protein remaining %≤ 100%) | B (80%< substrate protein remaining %≤ 100%) | 20 to 40% | 5 to 10%
5 | CC(C)c1cc2c(N3CCN(Cc4ccc5c(c4)CN(N4CCC(=O)NC4=O)C5=O)CC3)ncnc2s1 [GT-08060, 1-(5-((4-(6-isopropylthieno[2,3-d]pyrimidin-4-yl)piperazin-1-yl)methyl)-1-oxoisoindolin-2-yl)dihydropyrimidine-2,4(1H,3H)-dione] | B (80%< substrate protein remaining %≤ 100%) | 25 to 40% | 25 to 40% | A (0% ≤ substrate protein remaining % ≤ 80%) | B (80%< substrate protein remaining %≤ 100%) | 20 to 25% | 30 to 40% | B (80%< substrate protein remaining %≤ 100%) | A (0% ≤ substrate protein remaining % ≤ 80%) | B (80%< substrate protein remaining %≤ 100%) | 20 to 40% | 20 to 40%
6 | Cc1cc2c(C3CCN(Cc4ccc5c(c4)CN(N4CCC(=O)NC4=O)C5=O)CC3)ncnc2s1 [GT-08083, 1-(5-((4-(6-methylthieno[2,3-d]pyrimidin-4-yl)piperidin-1-yl)methyl)-1-oxoisoindolin-2-yl)dihydropyrimidine-2,4(1H,3H)-dione] | A (0% ≤ substrate protein remaining % ≤ 80%) | 25 to 40% | 25 to 40% | B (80%< substrate protein remaining %≤ 100%) | B (80%< substrate protein remaining %≤ 100%) | 25 to 30% | 30 to 40% | B (80%< substrate protein remaining %≤ 100%) | B (80%< substrate protein remaining %≤ 100%) | A (0% ≤ substrate protein remaining % ≤ 80%) | 20 to 40% | 20 to 40%
7 | Cc1nc(C2CCN(Cc3ccc4c(c3)CN(N3CCC(=O)NC3=O)C4=O)CC2)c2c3c(sc2n1)CCCC3 [GT-08089, 1-(5-((4-(2-methyl-5,6,7,8-tetrahydrobenzo[4,5]thieno[2,3-d]pyrimidin-4-yl)piperidin-1-yl)methyl)-1-oxoisoindolin-2-yl)dihydropyrimidine-2,4(1H,3H)-dione] | A (0% ≤ substrate protein remaining % ≤ 80%) | 18 to 25% | 25 to 40% | B (80%< substrate protein remaining %≤ 100%) | A (0% ≤ substrate protein remaining % ≤ 80%) | 20 to 25% | 20 to 25% | B (80%< substrate protein remaining %≤ 100%) | B (80%< substrate protein remaining %≤ 100%) | A (0% ≤ substrate protein remaining % ≤ 80%) | 20 to 40% | 20 to 40%
